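Each compound was tested at five concentrations against cells in 96-well plates for 48 hours. GI50 marks 50% less growth.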 Calls of active or inactive are those of the source. Cut-off read from the data, not from the text of the source: active = GI50 up to about 1.1 µM and inactive = higher.
Tests used:
Experiment in all cases: DTP human tumour cell line panel, 48 h
MDA-MB-231 = system: MDA-MB-231
COLO 205 = system: COLO 205
MOLT-4 = system: MOLT-4
UACC-257 = system: UACC-257
Malme-3M = system: Malme-3M
NCI-H460 = system: NCI-H460
SF-295 = system: SF-295
OVCAR-8 = system: OVCAR-8
OVCAR-5 = system: OVCAR-5
HCT-15 = system: HCT-15
HCC 2998 = system: HCC 2998
BT-549 = system: BT-549
DU-145 = system: DU-145
T47D = system: T47D
NCI-H226 = system: NCI-H226
SW-620 = system: SW-620
IGROV-1 = system: IGROV-1
NCI/ADR-RES = system: NCI/ADR-RES
NCI-H23 = system: NCI-H23
SF-539 = system: SF-539

Row | Compound | GI50 (MDA-MB-231) | GI50 (COLO 205) | GI50 (MOLT-4) | GI50 (UACC-257) | GI50 (Malme-3M) | GI50 (NCI-H460) | GI50 (SF-295) | GI50 (OVCAR-8) | GI50 (OVCAR-5) | GI50 (HCT-15) [µM] | GI50 (HCC 2998) | GI50 (BT-549) | GI50 (DU-145) | GI50 (T47D) | GI50 (NCI-H226) | GI50 (SW-620) | GI50 (IGROV-1) | GI50 (NCI/ADR-RES) | GI50 (NCI-H23) | GI50 (SF-539)
1 | NCCP(=O)(O)O | > 100 µM (inactive) | > 100 µM (inactive) | > 100 µM (inactive) | > 100 µM (inactive) | > 100 µM (inactive) | > 100 µM (inactive) | > 100 µM (inactive) | > 100 µM (inactive) | > 100 µM (inactive) | > 100 | > 100 µM (inactive) | > 100 µM (inactive) | > 100 µM (inactive) | > 100 µM (inactive) | > 100 µM (inactive) | > 100 µM (inactive) | > 100 µM (inactive) | > 100 µM (inactive) | > 100 µM (inactive) | –
2 | CC1CCc2sc3nc(S)n(-c4ccccc4)c(=O)c3c2C1 (stereo unspecified) | 53.8 µM (inactive) | > 100 µM (inactive) | 41.1 µM (inactive) | 63.8 µM (inactive) | 66.8 µM (inactive) | 34.4 µM (inactive) | 27.7 µM (inactive) | > 100 µM (inactive) | 86.9 µM (inactive) | > 100 | 21.6 µM (inactive) | > 100 µM (inactive) | 63.4 µM (inactive) | 33.4 µM (inactive) | 48.9 µM (inactive) | > 100 µM (inactive) | 47.4 µM (inactive) | > 100 µM (inactive) | 92.7 µM (inactive) | –
3 | CC(C)OC1OC(CO)C(O)CC1n1cc(F)c(=O)[nH]c1=O (stereo unspecified) | > 100 µM (inactive) | > 100 µM (inactive) | – | > 100 µM (inactive) | 86.1 µM (inactive) | > 100 µM (inactive) | > 100 µM (inactive) | > 100 µM (inactive) | > 100 µM (inactive) | > 100 | > 100 µM (inactive) | > 100 µM (inactive) | > 100 µM (inactive) | 48.4 µM (inactive) | > 100 µM (inactive) | 30.9 µM (inactive) | > 100 µM (inactive) | > 100 µM (inactive) | > 100 µM (inactive) | > 100 µM (inactive)
4 | CCOC(=O)c1nnsc1NC(=O)Nc1ccc(Cl)cc1 | 20.7 µM (inactive) | 67.3 µM (inactive) | > 100 µM (inactive) | > 100 µM (inactive) | 75.5 µM (inactive) | 7 µM (inactive) | – | 18.5 µM (inactive) | > 100 µM (inactive) | 61.9 | 38.5 µM (inactive) | > 100 µM (inactive) | 56.5 µM (inactive) | 34.3 µM (inactive) | 36.6 µM (inactive) | > 100 µM (inactive) | 31 µM (inactive) | 25.1 µM (inactive) | 32.8 µM (inactive) | –
5 | COC(=O)c1cc(NC(=O)c2cc(NC(=O)c3cc([N+](=O)[O-])cn3C)cn2C)cn1C | 35.6 µM (inactive) | 44.4 µM (inactive) | 29.8 µM (inactive) | – | 26.9 µM (inactive) | 40.3 µM (inactive) | 89.5 µM (inactive) | > 100 µM (inactive) | 81.1 µM (inactive) | 82 | – | > 100 µM (inactive) | > 100 µM (inactive) | 12 µM (inactive) | > 100 µM (inactive) | > 100 µM (inactive) | 0.0147 µM (active) | 61.4 µM (inactive) | 30.8 µM (inactive) | > 100 µM (inactive)
6 | CC(C)(C(=O)NN)c1ccccc1 | > 100 µM (inactive) | > 100 µM (inactive) | > 100 µM (inactive) | > 100 µM (inactive) | > 100 µM (inactive) | 37.2 µM (inactive) | 33.7 µM (inactive) | > 100 µM (inactive) | > 100 µM (inactive) | > 100 | > 100 µM (inactive) | > 100 µM (inactive) | > 100 µM (inactive) | > 100 µM (inactive) | – | 33 µM (inactive) | 8.79 µM (inactive) | > 100 µM (inactive) | > 100 µM (inactive) | 42.2 µM (inactive)
7 | O=C1CC(=O)c2c(Cl)sc(Cl)c21 | > 100 µM (inactive) | > 100 µM (inactive) | 34.1 µM (inactive) | > 100 µM (inactive) | 21.6 µM (inactive) | > 100 µM (inactive) | > 100 µM (inactive) | 52.2 µM (inactive) | > 100 µM (inactive) | 64.4 | – | > 100 µM (inactive) | > 100 µM (inactive) | > 100 µM (inactive) | 86.1 µM (inactive) | 91 µM (inactive) | > 100 µM (inactive) | > 100 µM (inactive) | 51.6 µM (inactive) | > 100 µM (inactive)
8 | OC1(c2ccccc2)CC2CCC(C1)N2CCCC1(c2ccc(F)cc2)OCCO1 (stereo unspecified) | > 100 µM (inactive) | 69.8 µM (inactive) | 47.2 µM (inactive) | 28.1 µM (inactive) | 98.4 µM (inactive) | – | 3.26 µM (inactive) | 16.3 µM (inactive) | 79.3 µM (inactive) | > 100 | – | > 100 µM (inactive) | > 100 µM (inactive) | > 100 µM (inactive) | – | > 100 µM (inactive) | > 100 µM (inactive) | 15.6 µM (inactive) | > 100 µM (inactive) | > 100 µM (inactive)
9 | O=C1C=C(NCCc2ccc(O)cc2)C(=O)C=C1NCCc1ccc(O)cc1 | 47.1 µM (inactive) | > 100 µM (inactive) | 46.5 µM (inactive) | > 100 µM (inactive) | > 100 µM (inactive) | > 100 µM (inactive) | > 100 µM (inactive) | 48.8 µM (inactive) | > 100 µM (inactive) | > 100 | > 100 µM (inactive) | > 100 µM (inactive) | > 100 µM (inactive) | > 100 µM (inactive) | > 100 µM (inactive) | > 100 µM (inactive) | > 100 µM (inactive) | > 100 µM (inactive) | > 100 µM (inactive) | –
10 | COCc1nc2c(OC)c(-c3nc4ccc(N5CCN(C)CC5)nc4[nH]3)cc(OC)c2[nH]1 | 45.8 µM (inactive) | 37.5 µM (inactive) | 37.1 µM (inactive) | 24 µM (inactive) | 20.7 µM (inactive) | 35.3 µM (inactive) | 31.6 µM (inactive) | 82.6 µM (inactive) | 40.4 µM (inactive) | 38.1 | 99.3 µM (inactive) | > 100 µM (inactive) | 29.2 µM (inactive) | 53 µM (inactive) | > 100 µM (inactive) | 39.1 µM (inactive) | > 100 µM (inactive) | > 100 µM (inactive) | 62.5 µM (inactive) | –
11 | Nc1ncnc2c1cnn2Cc1cn(COCC(O)CO)nn1 (stereo unspecified) | > 100 µM (inactive) | > 100 µM (inactive) | – | > 100 µM (inactive) | – | – | > 100 µM (inactive) | > 100 µM (inactive) | > 100 µM (inactive) | > 100 | > 100 µM (inactive) | > 100 µM (inactive) | > 100 µM (inactive) | > 100 µM (inactive) | – | > 100 µM (inactive) | > 100 µM (inactive) | > 100 µM (inactive) | > 100 µM (inactive) | > 100 µM (inactive)
12 | COc1ccc2c(c1)OCC1Cc3cc4c(cc3OC21)OCO4 (stereo unspecified) | > 100 µM (inactive) | 35.9 µM (inactive) | 36.8 µM (inactive) | 30.2 µM (inactive) | 54.1 µM (inactive) | – | 48.5 µM (inactive) | 45 µM (inactive) | 60.7 µM (inactive) | 30.4 | 44.6 µM (inactive) | 61 µM (inactive) | 56.4 µM (inactive) | 32.1 µM (inactive) | > 100 µM (inactive) | 35.7 µM (inactive) | 43 µM (inactive) | 26.2 µM (inactive) | > 100 µM (inactive) | 39.6 µM (inactive)
13 | CC1(C)OCC(C2OC(N3O[C@H](CI)C[C@@H]3c3ccccc3)C3OC(C)(C)OC23)O1 (stereo partly specified) | > 100 µM (inactive) | > 100 µM (inactive) | – | > 100 µM (inactive) | > 100 µM (inactive) | 56.1 µM (inactive) | > 100 µM (inactive) | – | > 100 µM (inactive) | > 100 | > 100 µM (inactive) | 99.3 µM (inactive) | > 100 µM (inactive) | > 100 µM (inactive) | – | > 100 µM (inactive) | > 100 µM (inactive) | > 100 µM (inactive) | > 100 µM (inactive) | > 100 µM (inactive)
14 | C1CCNCC1.CN(C)c1ccc(/C=C2/NC(=S)NC2=O)cc1 | > 100 µM (inactive) | 49.9 µM (inactive) | 28.2 µM (inactive) | 72.8 µM (inactive) | > 100 µM (inactive) | – | 40.5 µM (inactive) | 97.9 µM (inactive) | > 100 µM (inactive) | 45.3 | 7.26 µM (inactive) | 49.4 µM (inactive) | 62.1 µM (inactive) | 30.1 µM (inactive) | 41.1 µM (inactive) | 37.8 µM (inactive) | 59.6 µM (inactive) | 77.4 µM (inactive) | 61.5 µM (inactive) | 35.2 µM (inactive)
15 | Nc1nc(O)nc2c1ncn2C1OC(CO)C(O)C1O (stereo unspecified) | 38 µM (inactive) | > 100 µM (inactive) | 26.1 µM (inactive) | > 100 µM (inactive) | > 100 µM (inactive) | > 100 µM (inactive) | > 100 µM (inactive) | 23.8 µM (inactive) | > 100 µM (inactive) | 28.4 | 25.7 µM (inactive) | > 100 µM (inactive) | 23.5 µM (inactive) | 25.1 µM (inactive) | 69.3 µM (inactive) | 50.7 µM (inactive) | > 100 µM (inactive) | 22.6 µM (inactive) | > 100 µM (inactive) | –

— ChEMBL document CHEMBL1201862, “PubChem BioAssay data set” (2004)
